Experimental findings from ChEMBL document CHEMBL1156581, “Polychlorinated compounds with PPAR-gamma agonistic effect from the medicinal fungus Phellinus ribis” (Bioorg Med Chem Lett, 2008) are described below.

One assay has as its system Bacillus subtilis. As to the kind of experiment: Antimicrobial activity against Bacillus subtilis. The assay is classed as functional, organism-based.
For assay [1], the target named is T1, Peroxisome proliferator-activated receptor gamma (Homo sapiens) (UniProt P37231).
T1 sequence (whole entry): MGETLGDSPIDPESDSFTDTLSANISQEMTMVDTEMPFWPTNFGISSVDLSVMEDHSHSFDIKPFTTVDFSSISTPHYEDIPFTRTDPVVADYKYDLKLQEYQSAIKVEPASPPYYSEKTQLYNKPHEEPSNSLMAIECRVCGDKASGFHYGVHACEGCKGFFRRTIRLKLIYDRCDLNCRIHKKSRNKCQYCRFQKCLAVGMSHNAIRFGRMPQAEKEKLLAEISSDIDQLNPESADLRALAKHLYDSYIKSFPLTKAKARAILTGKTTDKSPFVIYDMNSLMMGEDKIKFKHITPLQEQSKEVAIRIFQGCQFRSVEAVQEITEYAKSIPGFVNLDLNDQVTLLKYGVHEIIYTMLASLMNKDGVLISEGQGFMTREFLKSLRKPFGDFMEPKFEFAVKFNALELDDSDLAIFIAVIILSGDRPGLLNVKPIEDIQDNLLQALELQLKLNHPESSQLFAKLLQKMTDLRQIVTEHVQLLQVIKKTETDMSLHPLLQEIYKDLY
Kind of assay: Agonist activity at PPARgamma expressed in mouse NIH3T3 cells assessed as maximum activation at 10 uM after 16 hrs by reporter gene assay. The format is functional, cell-based. In general terms: In a reporter assay the amount or activity of a reporter protein is the signal.

The next assay relates to Escherichia coli. As to the kind of experiment: Antimicrobial activity against Escherichia coli. The format is functional, organism-based.
In the next assay the test system is Staphylococcus aureus. As to the kind of experiment: Antimicrobial activity against Staphylococcus aureus. The assay is classed as functional, organism-based.
In assay [2] the target is T1, Peroxisome proliferator-activated receptor gamma (Homo sapiens). Kind of assay: Agonist activity at PPARgamma expressed in mouse NIH3T3 cells assessed as maximum activation at 100 uM after 16 hrs by reporter gene assay. The format is functional, cell-based.

The source made the active and inactive calls. The calls are words filed in the database; no cut-off is given here.

Turning to `COc1c(Cl)c(Cl)c(Oc2c(Cl)c(OC)c(Cl)c(Cl)c2Oc2c(O)c(Cl)c(Cl)c(OC)c2Cl)c(Cl)c1Cl`, the result in the assay with Bacillus subtilis, in the assay with Escherichia coli and in the assay on Staphylococcus aureus was inactive. The fold change (FC) in assay [1] amounted to 8.5.
As to `COc1c(Cl)c(Cl)c(O)c(Cl)c1Cl`, the fold change (FC) in assay [2] amounted to 8.4.
As to `COc1c(Cl)c(Cl)c(Oc2c(O)c(Oc3c(Cl)c(Cl)c(OC)c(Cl)c3Cl)c(Cl)c(OC)c2Cl)c(Cl)c1Cl`, the outcome in the assay with Bacillus subtilis, in the assay with Escherichia coli and in the assay with Staphylococcus aureus was inactive. Also, the fold change (FC) in assay [1] came to 2.
As for `COc1c(Cl)c(Cl)c(Oc2c(O)c(Cl)c(OC)c(Cl)c2Oc2c(Cl)c(Cl)c(OC)c(Cl)c2Cl)c(Cl)c1Cl`, the result with Bacillus subtilis, in the assay with Escherichia coli and in the assay on Staphylococcus aureus was inactive. In addition, the fold change (FC) in assay [1] was 2.
